Measurements published in patent US5352608A (priority 1992, dated 1994).
Where two headings read alike, the source gives them in different places.

Legend:
[1] = test system: Rhodobacter sphaeroides RS2; assay: Intrinsic HLR to TeO3^2- (MIC); type: cell-based; details: for MIC of RS2 lower than strain 2.4.1, 2.4.7 or WS8: approximately
[2] = test system: Rhodobacter sphaeroides 2.4.1; type: cell-based
R. sphaeroides PRKA^- = assay: Intrinsic HLR to tellurite in R. sphaeroides mutants (MIC); type: cell-based, Rhodobacter sphaeroides; details: for MIC K2 TeO3: SMM succinate; for Increase in TeO3^2- sensitivity: prkA deletion
Protocol: (§1) All Proteobacteria were grown at 30° C. with the exception of E. coli which was cultured at 37° C. on a Gyrotary shaker. Cultures of R. sphaeroides and R. gelatinosus were grown in LB, YP, or SMM containing either 0.4% succinate, 0.4% malate, or 0.4% butyrate as a carbon source. Cultures of R. capsulatus were grown in RCVB minimal medium containing 0.4% malate as a carbon source; R. rubrum was grown in SMM containing 0.4% malate, and 0.1% yeast extract. R. palustris and R. viridis were grown in SMM containing 0.4% malate, 0.1% yeast extract, and 50 μg/ml each of p-aminobenzoic acid and cyanocobalamin. […] Anaerobic-dark growth of R. sphaeroides on SMM medium containing DMSO, and photoheterotrophic growth conditions have been previously reported.
(§2) Several growth conditions were examined to determine requirements for tellurite reduction in vivo. Table 5 indicates the growth conditions tested.
(§3) ^a MIC were determined in SMM containing succinate at 30° C.
(§4) ^c Supplemented with 60 mM DMSO.

[3] = test system: tellurite reductase activity, R. sphaeroides PRKA^- B^-; assay: TeO3^2- -dependent FADH2 oxidation in subcellular fractions; type: biochemical, Rhodobacter sphaeroides; details: 100 μg/ml K2 TeO3
[4] = test system: tellurite reductase activity, R. sphaeroides BC17; assay: as above; type: biochemical, Rhodobacter sphaeroides; details: for FADH2 oxidation: 100 μg/ml K2 TeO3
R. sphaeroides MM1004 = type: cell-based, Rhodobacter sphaeroides; details: SMM succinate
Protocol: as §1, §2, §3, §4

[5] = test system: tellurite reductase activity, R. sphaeroides PUHA1; assay: TeO3^2- -dependent FADH2 oxidation in subcellular fractions; type: biochemical, Rhodobacter sphaeroides; details: 100 μg/ml K2 TeO3
[6] = test system: Rhodobacter capsulatus B10; assay: Intrinsic HLR to TeO3^2- (MIC); type: cell-based

SMILES: O=[Te]([O-])[O-].[K+].[K+] [K2 TeO3]
- MIC K2 TeO3 ([1]; aerobic, minimal medium): 400 µg/mL
- MIC of RS2 lower than strain 2.4.1, 2.4.7 or WS8 [1]: approximately two-to three fold
- MIC of RS2 lower than strain 2.4.1, 2.4.7 or WS8 ([1]; listed as tellurite): approximately two- to three-fold
- MIC K2 TeO3 ([1]; photosynthetic, 10 W/m^2): 250 µg/mL
- MIC Low-PO4^3- Medium [2]: 600 µg/mL
- MIC Standard Medium [2]: 600 µg/mL
- MIC ratio 10 W/m^2 vs 3 W/m^2 [2]: at least two-fold
- MIC ratio aerobically- vs. photosynthetically-grown [2]: two- to three-fold
- MIC relative to E. coli [2]: at least 80 times
- Reduction in TeO3^2- resistance with supplement [2]: thirty- to forty-fold
- Relative toxicity [2]: SeO4^2- >TeO4^2- >TeO3^2- >SeO3^2- >Rh2 O3.5H2 O
- Resistance in words [2]: intrinsic high level resistance
- MIC K2 TeO3 (R. sphaeroides PRKA^-; aerobic): 350 µg/mL
- MIC K2 TeO3 (R. sphaeroides PRKA^-; anaerobic-dark, 60 mM DMSO): 60 µg/mL
- MIC K2 TeO3 (R. sphaeroides PRKA^-; photosynthetic 10 W/m^2): 100 µg/mL
- Increase in TeO3^2- sensitivity (R. sphaeroides PRKA^-; aerobic): two-fold
- Increase in TeO3^2- sensitivity (R. sphaeroides PRKA^-; photosynthetic and anaerobic-dark/DMSO, at least): at least three- to five-fold
- FADH2 oxidation ([3]; membrane): 200 nmol/min/mg
- FADH2 oxidation ([3]; periplasm): 3 nmol/min/mg
- FADH2 oxidation ([4]; cytoplasm): 20 nmol/min/mg
- TeO3^2- -dependent FADH2 oxidase activity in words ([4]; in vitro): Neither BC17 nor PUHA1, two mutants which were previously shown to be tellurite sensitive under both aerobic and anaerobic-dark/DMSO growth conditions, expressed significant levels
- FADH2 oxidation ([4]; membrane): 51 nmol/min/mg
- FADH2 oxidation ([4]; periplasm): 2 nmol/min/mg
- MIC K2 TeO3 (R. sphaeroides MM1004; aerobic): 800 µg/mL
- MIC K2 TeO3 (R. sphaeroides MM1004; photosynthetic 10 W/m^2): 550 µg/mL
- FADH2 oxidation ([5]; cytoplasm): 37 nmol/min/mg
- FADH2 oxidation ([5]; membrane): 28 nmol/min/mg
- FADH2 oxidation ([5]; periplasm): 3 nmol/min/mg
- Resistance in words ([6]; aerobic): intrinsic high level resistance
- MIC K2 TeO3 ([6]; aerobic, minimal medium): 800 µg/mL
- MIC relative to E. coli ([6]; aerobic, tellurite): at least 80 times
- MIC K2 TeO3 ([6]; photosynthetic, 10 W/m^2): 500 µg/mL
